Results as given in patent US9845482B2, “Compositions and methods for enhancing bioenergetic status in female germ cells” (The General Hospital Corporation, priority 2011, dated 2017).

How the values were obtained:
OSCs from mice = test: Screen of mouse OSCs for compounds that enhance mitochondrial function (mtDNA, ATP, mitochondrial mass, membrane potential, gene expression); type: cell-based; settings: 24 hours; for activity above the baseline (DMSO alone), scored as a positive result: 25 or 50 μM (berberine 5 μM and 25 μM)
Source text: Female infertility due to chemotherapy, aging and premature ovarian failure (POF) is due in part to a decline in mitochondrial function in oocytes and OSCs. Accordingly, OSCs from mice were used to screen for small compounds that enhance mitochondrial function (“bioenergetic status”) in female germline cells. Assays for enhancing mitochondrial function included mtDNA content, ATP, NAD+/NADH, mitochondrial mass, mitochondrial membrane potential, and gene expression of known mitochondrial mass regulators and electron transport chain components.
All the compounds were dissolved in DMSO. For screening purposes the cells were treated with the vehicle (0.001% DMSO) or with 25 or 50 μM of each compound (except for berberine, which the concentrations used for the screen were 5 μM and 25 μM) for 24 hours. For validation of the top 6 hits, cells were treated with vehicle (0.001% DMSO) or either 5 or 25 μM of each compound for 24 hours. For the gene expression profile, the cells were treated with the concentration that was considered to work better in the previous validation assays.
Mitochondrial membrane potential was measured with a fluorescent probe, Tetramethylrhodamine methyl ester (TMRM) (Sigma) as described before (Rolo A. P. Biochim. Biophys. Acta 2003 1637: 127-132). Briefly the cells were loaded with 6.6 μM TMRM in HBSS buffer at 37° C. for 15 minutes in the dark. The supernatant was then aspirated, and the cells returned to the original volume with KHH. TMRM is a membrane-permeable cationic fluorophore that accumulates electrophoretically in mitochondria in proportion to their mitochondrial membrane potential (Ehrenberg B. V. et al. Biophys. J. 1988 53:785-794). Cell suspensions (200 μl containing 10^5 cells) were loaded into 96-well plates and fluorescence measured using excitation and emission wavelengths of 485 and 590 nm, respectively. Mitochondrial membrane potential was estimated, taking into account the complete depolarization caused by carbonyl cyanide p-(trifluoromethoxy)phenylhydrazone (FCCP).
For mtDNA analysis, total DNA was extracted with DNeasy blood and tissue kit (QIAGEN). mtDNA was amplified using primers specific for the mitochondrial cytochrome c oxidase subunit 2 (COX2) gene and normalized to genomic DNA by amplification of the ribosomal protein s18 (rps18) nuclear gene. Primers were designed using the IDT software (IDT).
ATP content was measured using a luciferase-based assay with a commercial kit according to the manufacturer's instructions (Roche Applied Science, Penzberg, Germany) and normalized to protein content in each sample.
Mitochondrial mass was evaluated using the fluorescent probe N-nonyl acridine orange (NAO), briefly the cells were incubated in culture media containing 10 nM of NAO for 30 minutes at 37° C. in the dark. The cells were then trypsinized and resuspended in culture media without NAO. The NAO fluorescence intensity was then determined by flow cytometry on the FACSCALIBUR® (BD Biosciences, San Jose, Calif., USA) using the 488 nm laser.
For gene expression analysis, RNA from skeletal muscle tissue and C2C12 cells were extracted with RNeasy mini kit (QIAGEN) according to the instructions and quantified using the NanoDrop 1000 spectrophotometer (Thermo Scientific). cDNA was synthesized with the iSCRIP cDNA synthesis kit (BioRad) using 200 ng of RNA. Quantitative RT-PCR reactions were performed using 1 μM of primers and LIGHTCYCLER® 480 SYBR® Green Master (Roche Applied Science, Penzberg, Germany) on an LIGHTCYCLER® 480 detection system (Roche Applied Science, Penzberg, Germany). Calculations were performed by a comparative method (2-ΔΔCT) using actin as an internal control. Primers were designed using the IDT software (IDT).

Mouse OSCs = test: NAD+ and NADH levels in mouse OSCs treated with mitochondrial enhancers; type: cell-based; settings: 24 hours
Protocol: FIG. 35 depicts levels of NAD+ (A) and NADH (B) in OSCs treated with mitochondrial enhancers. Mouse OSCs maintained in culture (Zou et al., Nat Cell Biol 2009 11:631-636) were exposed to the indicated test compounds for 24 hours and then assessed for levels of NAD+ and NADH. Female infertility due to chemotherapy, aging and premature ovarian failure (POF) is due in part to a decline in mitochondrial function in oocytes and OSCs. Accordingly, OSCs from mice were used to screen for small compounds that enhance mitochondrial function (“bioenergetic status”) in female germline cells. Assays for enhancing mitochondrial function included mtDNA content, ATP, NAD+/NADH, mitochondrial mass, mitochondrial membrane potential, and gene expression of known mitochondrial mass regulators and electron transport chain components. All the compounds were dissolved in DMSO. For screening purposes the cells were treated with the vehicle (0.001% DMSO) or with 25 or 50 μM of each compound (except for berberine, which the concentrations used for the screen were 5 μM and 25 μM) for 24 hours. For validation of the top 6 hits, cells were treated with vehicle (0.001% DMSO) or either 5 or 25 μM of each compound for 24 hours. For the gene expression profile, the cells were treated with the concentration that was considered to work better in the previous validation assays.

| Structure (SMILES) | mitochondrial parameters (OSCs from mice) | activity above the baseline (DMSO alone), scored as a positive result (OSCs from mice) | NAD^+ levels (Mouse OSCs) |
| --- | --- | --- | --- |
| O=C(Nc1ccccc1-c1cn2c(CN3CCNCC3)csc2n1)c1cnc2ccccc2n1 [SRT-1720, N-[2[3-(piperazin-1-ylmethyl)imidazo[2,1-b][1,3]thiazol-6-yl]phenyl]quinoxaline-2-carboxamide] | increase mitochondrial parameters in a beneficial way | activity above the baseline | – |
| O=c1cc(-c2ccc(O)cc2)oc2cc(O)cc(O)c12 [apigenin, 5,7-Dihydroxy-2-(4-hydroxyphenyl)-4H-1-benzopyran-4-one] | increase mitochondrial parameters in a beneficial way | activity above the baseline | raise |
| O=c1cc(-c2ccc(O)c(O)c2)oc2cc(O)cc(O)c12 [luteolin, 2-(3,4-Dihydroxyphenyl)-5,7-dihydroxy-4-chromenone] | increase mitochondrial parameters in a beneficial way | activity above the baseline | raise |
